Measured values reported in ChEMBL document CHEMBL6083210, “Exploring apoptotic induction of malabaricone A in triple-negative breast cancer cells: an acylphenol phyto-entity isolated from the fruit rind of Myristica malabarica Lam” (RSC Med Chem, 2024).
Calls of active or inactive are those of the source. The rule behind the calls is not given here.

Legend:
MDA-MB-231 [1] = assay: Antiproliferative activity against human MDA-MB-231 cells assessed as reduction in cell viability incubated for 24 hrs by MTT assay; format: functional, cell-based; details: MDA-MB-231, 24 h
SK-BR-3 = assay: Antiproliferative activity against human SK-BR-3 cells assessed as reduction in cell viability incubated for 24 hrs by MTT assay; format: functional, cell-based; details: SK-BR-3, 24 h
MCF-10A = assay: Antiproliferative activity against human MCF-10A cells assessed as reduction in cell viability incubated for 24 hrs by MTT assay; format: functional, cell-based
MDA-MB-231 [2] = assay: Induction of morphological changes in human MDA-MB-231 cells assessed as decrease in cell number at 15 uM measured upto 18 hrs by acridine orange and ethidium bromide dual staining based inverted microscopic analysis; format: functional
MDA-MB-231 [3] = assay: Antiproliferative activity against human MDA-MB-231 cells assessed as reduction in cell viability at 1 to 50 uM by MTT assay; format: functional, cell-based; details: dose 1-50 µM, time 12-48 hrs
MDA-MB-231 [4] = assay: Antiproliferative activity against human MDA-MB-231 cells assessed as reduction in cell viability measured after 12 to 48 hrs by MTT assay; format: functional, cell-based; details: dose 1-50 µM, time 12-48 hrs
MDA-MB-231 [5] = assay: Induction of morphological changes in human MDA-MB-231 cells assessed as appearance of spherical shaped cell at 6 to 10 uM measured 24 hrs by EtBr-AO Live dead Assay; format: functional, cell-based; details: dose 6-10 µM
MDA-MB-231 [6] = assay: Induction of morphological changes in human MDA-MB-231 cells assessed as membrane breakage at 6 to 10 uM measured 24 hrs by EtBr-AO Live dead Assay; format: functional, cell-based; details: dose 6-10 µM
MDA-MB-231 [7] = assay: Induction of morphological changes in human MDA-MB-231 cells assessed as membrane blebbing at 6 to 10 uM measured 24 hrs by EtBr-AO Live dead Assay; format: functional, cell-based; details: dose 6-10 µM
MDA-MB-231 [8] = assay: Induction of morphological changes in human MDA-MB-231 cells assessed as leakage of intracellular components at 6 to 10 uM measured 24 hrs by EtBr-AO Live dead Assay; format: functional, cell-based; details: dose 6-10 µM
MDA-MB-231 [9] = assay: Induction of apoptosis in human MDA-MB-231 cells assessed as increase in green fluorescence incubated for 24 hrs by acridine orange and ethidium bromide dual staining based analysis; format: functional, cell-based; details: dose 6-10 µM
MDA-MB-231 [10] = assay: Induction of apoptosis in human MDA-MB-231 cells assessed as increase in green fluorescence at 6 to 10 uM by acridine orange and ethidium bromide dual staining based analysis; format: functional, cell-based; details: dose 6-10 µM, time 12-48 hrs
MDA-MB-231 [11] = assay: Induction of apoptosis in human MDA-MB-231 cells assessed as dead cells by measuring pink coloration at 6 to 10 uM incubated for 24 hrs by APO staining based analysis; format: functional, cell-based; details: dose 6-10 µM
MDA-MB-231 [12] = assay: Induction of apoptosis in human MDA-MB-231 cells assessed as viable cells at 6 uM incubated for 24 hrs by FITC annexin V staining based analysis (reference value: 90.5%); format: functional; details: read-out: Activity
MDA-MB-231 [13] = assay: Induction of apoptosis in human MDA-MB-231 cells assessed as viable cells at 8 uM incubated for 24 hrs by FITC annexin V staining based analysis (reference value: 90.5%); format: functional; details: read-out: Activity
MDA-MB-231 [14] = assay: Induction of apoptosis in human MDA-MB-231 cells assessed as viable cells at 10 uM incubated for 24 hrs by FITC annexin V staining based analysis (reference value: 90.5%); format: functional; details: read-out: Activity
MDA-MB-231 [15] = assay: Induction of apoptosis in human MDA-MB-231 cells assessed as early apoptotic cells at 6 uM incubated for 24 hrs by FITC annexin V staining based analysis (reference value: 1.4%); format: functional
MDA-MB-231 [16] = assay: Induction of apoptosis in human MDA-MB-231 cells assessed as early apoptotic cells at 8 uM incubated for 24 hrs by FITC annexin V staining based analysis (reference value: 1.4%); format: functional
MDA-MB-231 [17] = assay: Induction of apoptosis in human MDA-MB-231 cells assessed as early apoptotic cells at 10 uM incubated for 24 hrs by FITC annexin V staining based analysis (reference value: 1.4%); format: functional
MDA-MB-231 [18] = assay: Induction of apoptosis in human MDA-MB-231 cells assessed as late apoptotic cells at 6 uM incubated for 24 hrs by FITC annexin V staining based analysis (reference value: 7.3%); format: functional
MDA-MB-231 [19] = assay: Induction of apoptosis in human MDA-MB-231 cells assessed as late apoptotic cells at 8 uM incubated for 24 hrs by FITC annexin V staining based analysis (reference value: 7.3%); format: functional
MDA-MB-231 [20] = assay: Induction of apoptosis in human MDA-MB-231 cells assessed as late apoptotic cells at 10 uM incubated for 24 hrs by FITC annexin V staining based analysis (reference value: 7.3%); format: functional
MDA-MB-231 [21] = assay: Induction of apoptosis in human MDA-MB-231 cells assessed as necrotic cells at 6 uM incubated for 24 hrs by FITC annexin V staining based analysis (reference value: 0.8%); format: functional
MDA-MB-231 [22] = assay: Induction of apoptosis in human MDA-MB-231 cells assessed as necrotic cells at 8 uM incubated for 24 hrs by FITC annexin V staining based analysis (reference value: 0.8%); format: functional
MDA-MB-231 [23] = assay: Induction of apoptosis in human MDA-MB-231 cells assessed as necrotic cells at 10 uM incubated for 24 hrs by FITC annexin V staining based analysis (reference value: 0.8%); format: functional
MDA-MB-231 [24] = assay: Induction of apoptosis in human MDA-MB-231 cells assessed as fold increase in caspase 3 level at 8 uM by fluorometric assay; format: functional
MDA-MB-231 [25] = assay: Induction of apoptosis in human MDA-MB-231 cells assessed as fold increase in caspase 9 level at 8 uM by fluorometric assay; format: functional
MDA-MB-231 [26] = assay: Induction of apoptosis in human MDA-MB-231 cells assessed as fold increase in caspase 8 level at 8 uM incubated for 24 hrs by fluorometric assay; format: functional

For `O=C(CCCCCCCCc1ccccc1)c1c(O)cccc1O` [MALABARICONE A], the IC50 (MDA-MB-231 [1]) was 8.81 µM, the IC50 (SK-BR-3) was 8.39 µM and the IC50 (MCF-10A) was 68.9 µM. For the same molecule, the Activity (MDA-MB-231 [2]) was “Active”, the Activity (MDA-MB-231 [3]) was “Time-dependent-effect” and the Activity (MDA-MB-231 [4]) was “Dose-dependent-effect”. For the same molecule, the Activity (MDA-MB-231 [5]) was “Active”, the Activity (MDA-MB-231 [6]) was “Active” and the Activity (MDA-MB-231 [7]) was “Active”. For the same molecule, the Activity (MDA-MB-231 [8]) was “Active”, the Activity (MDA-MB-231 [9]) was “Dose-dependent-effect” and the Activity (MDA-MB-231 [10]) was “Time-dependent-effect”. The Activity (MDA-MB-231 [11]) was “Active”, the viability at 6 µM (MDA-MB-231 [12]) was 68.5% and the viability at 8 µM (MDA-MB-231 [13]) was 50.2%. The viability at 10 µM (MDA-MB-231 [14]) was 32.4%, the Activity (MDA-MB-231 [15]) was 7.3% and the Activity (MDA-MB-231 [16]) was 6.45%. For the same molecule, the Activity (MDA-MB-231 [17]) was 4.25%, the Activity (MDA-MB-231 [18]) was 20.4% and the Activity (MDA-MB-231 [19]) was 35.25%. For the same molecule, the Activity (MDA-MB-231 [20]) was 50.65%, the Activity (MDA-MB-231 [21]) was 3.85% and the Activity (MDA-MB-231 [22]) was 8.05%. The Activity (MDA-MB-231 [23]) was 12.7%, the “fold change (FC)” value (MDA-MB-231 [24]) was 8.9 and the “fold change (FC)” value (MDA-MB-231 [25]) was 3.1. For the same molecule, the “fold change (FC)” value (MDA-MB-231 [26]) was 2.4.
